System: LTB4-induced phosphorylation of ERK in monocytes
Assay: Human pERK assay in whole blood
Format: cell-based
Conditions: Monocyte, 10 nM LTB4
Experimental: The ability of the compound of Example 2 to block LTB4-induced signaling through BLT1 was assessed in whole blood obtained from healthy human volunteers and from 129SvEv mice that are the model strain for preclinical AAA efficacy evaluation.
Whole blood is collected from human donors in 10 mL K2 ethylenediaminetetraacetic acid (EDTA) vacutainer tubes (BD Biosciences). Aliquots of whole blood are pre-warmed at 37° C. for 20 min. 10 point dose response curves of test compounds are assayed at final concentrations of 20 nM-10 μM. 10 point ½ serial dilutions of compound at 1000× of final assayed concentration are prepared in DMSO. Compound is then diluted to 10× in Dulbecco's Phosphate Buffered Saline (DPBS) (DMSO concentration is now 1%). 10 μL of compound dilutions (at 10× in DPBS) or 1% DMSO in DPBS are added to wells of a 2.0 mL volume 96 deep well plate (Nunc) and placed in 37° C. heat block.
Immediately thereafter, 80 μL whole blood is added and incubated for 20 min at 37° C. […] Samples are warmed to room temperature and analyzed on a Beckman Coulter FC500 flow cytometer. […] Data are analyzed with WinList software (Verity Software House) to determine mean and median fluorescent intensity values for pERK-PE from monocyte population.

Work on `CCCc1c(NC(=O)CC(C)(C)C(=O)[O-])cccc1OCCCOc1cc(O)c(-c2ccc(F)cc2)cc1CC.[Na+]` [Example 2, Sodium 4-[[3-[3-[2-ethyl-4-(4-fluorophenyl)-5-hydroxy-phenoxy]propoxy]-2-propyl-phenyl]amino]-2,2-dimethyl-4-oxo-butanoate] yielded an IC50 of 814 nM.

From patent US9187411B2, “Leukotriene B4 antagonist compound” (Eli Lilly and Company, priority 2012, dated 2015)
